Data on 2 sequences can be found in US20240398919A1, “EPITOPE PEPTIDE FOR TUMOR-ASSOCIATED ANTIGEN AND USE THEREOF” (SHENZHEN INSTITUTES OF ADVANCEDTECHNOLOGY CHINESE ACADEMY …, priority 2023, published 2024).

“Also recorded” adds a separate entry of the source.

Assay [1] has as its system splenocytes (IFN-γ secreting T cells). The experiment in a line: IFN-γ ELISPOT of splenocytes co-cultured with peptides. Type of assay: cell-based. As to conditions: splenocytes of immunized mice, 5×10^5/well, co-cultured with peptide (10 μg) for 20 h; vs DPBS and CpG groups. The method, then: Isolate splenocytes: Spleens were gently mashed and filtered through a 70-μm strainer (Falcon, Corning, Germany), and then collected into a 15 mL centrifuge tube. After adding 1 mL erythrocyte lysis buffer and washing in PBS, cells were collected for ELISPOT assay.
Enzyme-linked immunospot assay (ELISPOT): splenocytes were isolated according to the above method and were co-cultured with different polypeptides (10 μg) at 5×10^5/well for 20 h. The size and number of IFN-γ positive spots were calculated by using Adobe Photoshop CS6 software.
FIGS. 5A and 5B is a graph showing the detection results of the ability of specific T cells to secrete IFN-γ induced by tumor antigen epitope peptides. In FIGS. 5A and 5B, the experimental mice were euthanized, the monocytes derived from spleens were co-cultured with different peptides for 20 h to detect the secretion of IFN-γ by ELISPOT assay according to the manufacturer's instructions. Spleens were gently mashed and monocytes were isolated using a lymphocyte separation medium. The monocytes were incubated into wells of an ELISPOT plate and stimulated synchronously. The cells were incubated in an incubator at 37° C. and cytokines were captured. The number of T cells specifically secreting IFN-γ in splenocytes of the immunized mice can be detected by detecting the formation of spots.

Assay [2] relates to MB49 bladder cancer cells. The experiment in a line: Tumor growth inhibition by peptide vaccines in the mouse bladder cancer treatment model. Type of assay: in vivo, C57BL/6 mice. The note with it: 3×10^5 MB49 cells s.c. on Day 0; peptide 100 μg/100 μL + CpG ODN 1826 10 μM s.c. on day 3, 6, 9, 12, 15, 18, 21; tumor size every 3 days; vs DPBS and CpG groups. The method, then:
Cancer cells and animal model: MB49 bladder cancer cells were grown in DMEM containing 10% FBS (Fetal Bovine Serum, Gibco, 10099141C) and 1% PS (Penicillin-Streptomycin-Glutamine, Gibco, 10378016). 3×10^5 MB49 cancer cells were resuspended in 100 μL of DPBS and injected subcutaneously into a lower back of male C57BL/6 mice (6-8 weeks old), respectively to construct a mouse bladder cancer treatment model. After the initial implantation of tumors, the mice developed tumors around 5 days, and after tumor formation, the tumor growth was monitored every other 3 days, and a long diameter (a) and a short diameter (b) of the tumor were measured with a vernier caliper, and the size of each solid tumor was calculated according to the solid tumor size V=axbxb/2, and a tumor growth curve was plotted. […]
FIG. 2 is a graph showing the detection results of a tumor growth inhibition assay of antigenic epitope peptides derived from various genes tested. […] The tumor size in the mice was detected every 3 days.
FIG. 3 is a graph showing the detection results of testing the inhibitory effect of mixed peptide vaccines on tumor growth after vaccines are prepared by mixing the effective antigenic epitope peptides. […] The tumor size in the mice was detected every 3 days. […]

As to FYMMPVNSEVM [NUF-2], the “Specific T-cell response (IFN-γ secretion, ELISPOT)” value in assay [1] is on record as “can strongly stimulate the immune response of specific T cells; also recorded: significant T-cell responses; also recorded: strongest T-cell response”. The “Inhibition of tumor growth (tumor size)” value in assay [2] is “can effectively inhibit the growth of bladder cancer; also recorded: significantly inhibited the growth of bladder cancer; also recorded: most significant tumor-inhibiting effects”.
For VHLAKSLPL [CENPM] the same measures were “can strongly stimulate the immune response of specific T cells; also recorded: significant T-cell responses; also recorded: can induce T-cell responses” and “partial tumor growth inhibitory effect; also recorded: did not show significant tumor inhibition; also recorded: does not show strong anti-tumor effects”.
